Experimental data from article PMC8388802, “Study on the Structure-Activity Relationship of an Antimicrobial Peptide, Brevinin-2GUb, from the Skin Secretion of Hylarana guentheri” (Antibiotics, 2021).
Where a SMILES comes first, the peptide text is derived from it. Where no end group is shown, it is not given here.

Experiments:
[1] = tested on: enteroaggregative E. coli; settings: cited from earlier work
From the text: Due to the influence of physiological factors, there may be some difference between the antimicrobial activity in vitro and in vivo [41]. Consistent with the haemolysis assay and cytotoxicity assay results, Brevinin-2GUb is much harmful to the wax moth than tB2U-K and tB2U-6K. […] In our study, with the increase of the number of net charges, the survival rate of E. coli-infected wax moth is enhanced and the ability o ...

[2] = tested on: P. aeruginosa (ATCC CRM 9027); assay type: cell-based, Pseudomonas aeruginosa
Description: (§1) The method of antimicrobial assay is based on the Methods for Dilution Antimicrobial Susceptibility Tests for Bacteria that Grow Aerobically from the Clinical and Laboratory Standards Institute (CLSI).The antimicrobial activities of peptides were evaluated against Gram-positive bacteria S. aureus (ATCC 6538), MRSA (NCTC 12493), E. faecalis (NCTC 12493), Gram-negative bacteria E. coli (ATCC CRM 8739), K. pneumoniae (ATCC 43816), P. aeruginosa (ATCC CRM 9027), yeast C. albicans (ATCC CRM 10231) and clinical isolates MRSA (B042 V2E1 A), E. coli (ATCC BAA-2340), K. pneumoniae (ATCC BAA-1705), P. aeruginosa (B004 V2S2 B).
(§2) At the first stage of the assay, 20 μL bacteria were cultured in 100 mL Mueller Hinton Broth (MHB) or Yeast Extract–Peptone–Dextrose broth (YPD-B), respectively, and was incubated overnight. Then, microorganisms were subcultured in 20 mL fresh MHB or YPD-B to achieve cultures in the logarithmic phase (1 × 10^8 CFU/mL), which can be verified by optical density (OD) (The OD of Gram-positive bacteria is 0.23, OD of Gram-negative bacteria is 0.4, and OD of yeast is 0.15), and viable cell counts. Then, the medium was used to dilute the cultures to specific cell densities (Gram-negative and Gram-positive bacteria: 5 × 10^5 CFU/mL; yeast: 1 × 10^6 CFU/mL), which were the final concentrations of bacterial suspensions used in the assay. The peptides were dissolved in DMSO to reach a final concentration of 512 µM. A series of two-fold dilutions ranging from 512 µM to 1 µM were dosed in the 96-well plates.
(§3) Antimicrobial assays were conducted in 96-well plates, which were divided into five groups, including a negative control group (PBS), a positive control group (20 μg/mL norfloxacin for bacteria and 10 μg/mL amphotericin B for yeast), vehicle control (1% DMSO), blank control (MHB or YPD-B), and a peptide group. Each microorganism had five repetitions, and each well contained 1 µL corresponding solution and 99 µL culture. After incubation at 37 °C overnight, the absorbance of each well was tested by a microplate reader (EL808, Biolise BioTek Winooski, Minneapolis, USA) under a 550 nm wavelength. The MIC is the lowest concentration at which no bacterial growth can be observed.
(§4) The next day, 10 µL of every clear well was taken out to be cultured on a Mueller Hinton Agar (MHA) plate and incubated at 37 °C for 16–20 h. The MBC is the lowest concentration without any bacterial colonies, which means at this concentration, the peptide reduces the viability of the pathogen by more than 99.9%.

[3] = tested on: P. aeruginosa (B004 V2S2 B); assay type: cell-based, Pseudomonas aeruginosa
Description: as §1, §2, §3, §4

[4] = tested on: S. aureus (ATCC 6538) biofilm; assay type: cell-based, Staphylococcus aureus; settings: ATCC 6538, 24 h
Description: (§5) The anti-biofilm activities of the peptides against S. aureus (ATCC 6538), MRSA (NCTC 12493), E. faecalis (NCTC 12493), E. coli (ATCC CRM 8739), K. pneumoniae (ATCC 43816), and P. aeruginosa (ATCC CRM 9027) were evaluated.
(§6) The bacteria were inoculated in a different medium (Gram-positive bacteria were in TSB and Gram-negative bacteria were in LB) overnight, and the subculture was conducted in the same medium. When the bacteria reached a specific density, 100 µL of the dilution was added to each well of the 96-well microplate. Then 1 µL of peptide at a series of concentrations, the same concentration in the antimicrobial assay, were added into the well together with the bacteria. The plates were put into a moist shaking incubator with a speed of 200 rpm, and the temperature was set at 37 ℃. After a 24-h incubation, the liquid in the wells was aspirated, and each was washed twice by 100 µL PBS. One hundred µL of methanol were added into each well to stabilise the biofilm. After air-drying, 100 µL crystal violet was used to dye the biofilm, and they were dissolved in the 100 µL glacial acidic acid after drying. The solutions were transferred to a new microplate, and the absorbance of each well was tested by a microplate reader (EL808, Biolise BioTek Winooski, Minneapolis, MN, USA) at 595 nm wavelength. MBIC was the minimum concentration of the peptide showing no biofilm formation.
(§7) The bacteria were inoculated in a different medium (Gram-positive bacteria were in TSB and Gram-negative bacteria were in LB) overnight, and the subculture was conducted in the same medium. When the bacteria reached a specific density, 100 µL of the dilution was added to each well of the 96-well microplates. The plates were put into a moist shaking incubator with a speed of 200 rpm and the temperature was 37 ℃. After a 24 h incubation, the liquid in the wells was aspirated and they were washed twice by 100 µL PBS of each well. The peptides with the same concentrations were diluted in the corresponding medium and 100 µL were added into each well. After a 24-h incubation, the liquid in the wells was aspirated and they were washed twice by 100 µL PBS. One hundred µL of methanol were added into the wells to stabilise the biofilms. After being air-dried, 100 µL crystal violet was used to dye the biofilm, and they were dissolved in the 100 µL glacial acidic acid after drying. The solutions were transferred to a new microplate, and the absorbance of each well was tested by a microplate reader (EL808, Biolise BioTek Winooski, Minneapolis, USA) at 595 nm wavelength.

[5] = tested on: E. faecalis (NCTC 12493) biofilm; assay type: cell-based, Enterococcus faecalis; settings: NCTC 12493, 24 h
Description: as §5, §6, §7

[6] = tested on: P. aeruginosa (ATCC CRM 9027) biofilm; assay type: cell-based, Pseudomonas aeruginosa; settings: ATCC CRM 9027, 24 h
Description: as §5, §6, §7

[7] = tested on: MRSA (NCTC 12493) biofilm; assay type: cell-based, Methicillin-resistant Staphylococcus aureus; settings: NCTC 12493, 24 h
Description: as §5, §6
The bacteria were inoculated in a different medium (Gram-positive bacteria were in TSB and Gram-negative bacteria were in LB) overnight, and the subculture was conducted in the same medium. When the bacteria reached a specific density, 100 µL of the dilution was added to each well of the 96-well microplates. The plates were put into a moist shaking incubator with a speed of 200 rpm and the temperature was 37 ℃. […] The solutions were transferred to a new microplate, and the absorbance of each well was tested by a microplate reader (EL808, Biolise BioTek Winooski, Minneapolis, USA) at 595 nm wavelength.

[8] = tested on: K. pneumoniae (ATCC 43816) biofilm; assay type: cell-based, Klebsiella pneumoniae; settings: ATCC 43816, 24 h
Description: as §5, §6, §7

[9] = tested on: wax moth (Galleria mellonella); experiment: Toxicity of peptides to waxworms; assay type: in vivo; settings: uninfected waxworms, when the concentration reached 15 mg/kg
[10] = tested on: K. pneumoniae (ATCC 43816); assay type: cell-based, Klebsiella pneumoniae
Description: as §1, §2, §3, §4

[11] = tested on: K. pneumoniae (ATCC BAA-1705); assay type: cell-based, Klebsiella pneumoniae
Description: as §1, §2, §3, §4

S. aureus (ATCC 6538) = assay type: cell-based, Staphylococcus aureus
Description: as §1, §2, §3, §4

E. coli (ATCC CRM 8739) = assay type: cell-based, Escherichia coli
Description: as §1, §2, §3, §4

E. coli (ATCC BAA-2340) = assay type: cell-based, Escherichia coli
Description: as §1, §2, §3, §4

E. faecalis (NCTC 12493) = assay type: cell-based, Enterococcus faecalis
Description: as §1, §2, §3, §4

[12] = tested on: C. albicans (ATCC CRM 10231); assay type: cell-based, Candida albicans
Description: as §1, §2, §3, §4

MRSA (NCTC 12493) = assay type: cell-based, Methicillin-resistant Staphylococcus aureus
Description: as §1, §2, §3, §4

MRSA (B042 V2E1 A) = assay type: cell-based, Methicillin-resistant Staphylococcus aureus
Description: as §1, §2, §3, §4

[13] = tested on: E. coli (ATCC CRM 8739) biofilm; assay type: cell-based, Escherichia coli; settings: ATCC CRM 8739, 24 h
Description: as §5, §6, §7

Indolicidin (ILPWKWPWWPWRR; ends and bridges not checked; UniProt P33046 131-143, looked up) [antimicrobial peptide of a previous study in Galleria mellonella]
up to 95%: survival rate of Galleria mellonella infected by the enteroaggregative E. coli [1]

CC[C@H](C)[C@H](NC(=O)[C@@H](NC(=O)CN)C(C)C)C(=O)N[C@H](C(=O)N[C@@H](CC(=O)O)C(=O)N[C@H](C(=O)N[C@@H](CC(C)C)C(=O)N[C@@H](CCCCN)C(=O)NCC(=O)N[C@@H](C)C(=O)N[C@@H](C)C(=O)N[C@@H](CCCCN)C(=O)N[C@H](C(=O)N[C@H](C(=O)N[C@@H](C)C(=O)N[C@@H](C)C(=O)N[C@@H](CCC(=O)O)C(=O)N[C@@H](CC(C)C)C(=O)N[C@@H](CC(C)C)C(=O)N[C@@H](CCCNC(=N)N)C(=O)N[C@@H](CCCCN)C(=O)N[C@@H](C)C(=O)N[C@@H](Cc1c[nH]cn1)C(=O)N[C@H]1CSSC[C@@H](C(=O)O)NC(=O)[C@H](CO)NC(=O)[C@H](CC(N)=O)NC(=O)[C@H]([C@@H](C)O)NC(=O)[C@H](CC(C)C)NC(=O)[C@H](CCCCN)NC1=O)C(C)C)[C@@H](C)O)[C@@H](C)O)[C@@H](C)CC [Brevinin-2GUb] (HELM PEPTIDE1{G.V.I.I.D.T.L.K.G.A.A.K.T.V.A.A.E.L.L.R.K.A.H.C.K.L.T.N.S.C}$PEPTIDE1,PEPTIDE1,24:R3-30:R3$$$V2.0)
> 512 µM: MBEC [4] | MBEC [13]
128 µM: MIC [2] | MBC [10] | MIC [10] | MBIC [13]
512 µM: MBC [2] | MBC [11] | MIC [11]
modest toxicity: toxicity to waxworms [9]
32 µM: MBC (S. aureus (ATCC 6538)) | MIC (S. aureus (ATCC 6538)) | MBC (E. coli (ATCC BAA-2340)) | MIC (E. coli (ATCC BAA-2340))
16 µM: MBC (E. coli (ATCC CRM 8739)) | MIC (E. coli (ATCC CRM 8739))
>512 µM: MBC [3] | MIC [3] | MBEC [5] | MBIC [5] | MBEC [6] | MBIC [6] | MBEC [8] | MBIC [8] | MBC (E. faecalis (NCTC 12493)) | MIC (E. faecalis (NCTC 12493)) | MBC [12] | MIC [12] | MBC (MRSA (NCTC 12493)) | MIC (MRSA (NCTC 12493)) | MBC (MRSA (B042 V2E1 A)) | MIC (MRSA (B042 V2E1 A))
256 µM: MBIC [4] | MBIC [7]
